# According to patent US20240294491A1, “SALT OF HETEROCYCLIC COMPOUND WITH ANTI-MALARIA ACTIVITY, AND CRYSTALS THEREOF” (priority 2021, published 2024):
# “And” between values parts separate entries of the source, which are not always exact repeats. Identical values can stand only once.
# Tests used:
# [1] = system: 3D7 strain of Plasmodium falciparum (drug-sensitive strain); assay: in vitro antimalarial activity, p-LDH colorimetric protozoan growth assay, 3D7 strain; type: cell-based; conditions: 72 hours culture, p-LDH colorimetry, read-out: 50% protozoan-growth-inhibitory concentration (IC50 value)
# Protocol: (§1) With use of 3D7 and K1 strains, which are a drug-sensitive strain and drug-resistant strain of Plasmodium falciparum, respectively, provided by The Tropical Disease Research Center, Kitasato University, the in vitro antimalarial activity of the compound for these plasmodia was determined. In culture of the test protozoan parasites, maintenance and subculture were performed with a partially modified version of a method by Trager and Jensen (Trager, W and Jensen, J.: Human malaria parasites in continuous culture, Science, 193:673-677, (1976)), and the resultants were used. […]
# (§2) The protozoan infection rate was maintained within the range of 0.25 to 10%. Drug sensitivity test was carried out with a modified version of a method by Desjardins et al. (Desjardins, R. E., Canfield, C. J., Haynes, D. E. and Chulay, J. D.: Quantitative assessment of antimalarial activity in vitro by a semiautomated microdilution technique. Antimicrob. Agents Chemother., 16:710-718 (1979)). […] Blue formazan, a product generated through the reaction, was detected by measuring absorbance at a measurement wavelength of 660 nm by using a microplate reader to determine the presence or absence of protozoan growth by colorimetry. […]
# [2] = system: Pf3D7^0087N9 strain of Plasmodium falciparum; assay: drug efficacy evaluation with a humanized mouse malaria model; type: in vivo; conditions: humanized NSG mice, oral once per day for 3 days, treatment initiated 72 hours after infection, infection rate by flow cytometry
# Protocol: The following drug efficacy evaluation with a humanized mouse malaria model was carried out by The Art of Discovery S. L. (Vizcaya, Spain) with use of compound (I). In short, erythrocytes infected with Plasmodium falciparum were intravenously inoculated into mice with transplanted human erythrocytes, and drug treatment was initiated after the lapse of 72 hours. The therapeutic effect in terms of infection rates was evaluated by determining the proportion of infected erythrocytes in peripheral blood.
# Used in the present test was a Pf3D7^0087N9 strain of Plasmodium falciparum, which was produced according to study described in Reference (1) shown below. Human erythrocytes were transplanted into female NSG (NOD-scid IL-2Rγnull) immunodeficient mice, and the proportion of human erythrocytes in all the erythrocytes in peripheral blood was maintained to be 40% or more throughout the test period. […] Specifically, 2 μL of peripheral blood collected from an infected mouse was stained with TER-119-Phycoeruthrine (mouse erythrocyte marker) and SYTO-16 (dye for nucleic acid staining), and analyzed by flow cytometry. […] 2008 May 21; 3(5):e2252. • (2) Jimenez-Diaz et al. Quantitative measurement of Plasmodium-infected erythrocytes in murine models of malaria by flow cytometry using bidimensional assessment of SYTO-16 fluorescence. […]
# [3] = system: K1 strain of Plasmodium falciparum (drug-resistant strain); assay: in vitro antimalarial activity, p-LDH colorimetric protozoan growth assay, K1 strain; type: cell-based; conditions: K1, 72 h, read-out: 50% protozoan-growth-inhibitory concentration (IC50 value)
# Protocol: as §1, §2
smiles,measurement,setting,value
"C[C@@H](Oc1ccc(CNC(=O)c2cc(-n3cnc(C(F)(F)F)n3)c(N)nc2N)cc1)C(F)(F)F [compound (I), 2,6-diamino-5-[3-(trifluoromethyl)-1H-1,2,4-triazol-1-yl]-N-(4-{[(2R)-1,1,1-trifluoropropan-2-yl]oxy}benzyl)pyridine-3-carboxamide]",IC50,[1],0.026 µg/mL and 53 nM
same,ED90 (daily dose with which the infection rate on day 7 after the infection decreased by 90% from that in a nontreatment group),[2],3.2 mg/kg/day
same,IC50,[3],0.043 µg/mL and 89 nM
